Assay results reported in patent US10479780B2, “Aminopyrazole derivatives” (Chugai Seiyaku Kabushiki Kaisha, priority 2015, dated 2019).

Key:
Assay type in all cases: biochemical
human Yes1 enzyme = molecular target: T1, human Yes1 enzyme (Homo sapiens, UniProt P07947); experiment: Yes1 enzyme inhibitory activity (time-resolved fluorometry, biotinylated peptide phosphorylation); details: read-out: YES_IC50
T1 construct: made in house
Outline: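 Inhibition was expressed against a compound-free control to give IC50, using TR-FRET read-out (Eu-cryptate anti-pTyr antibody, streptavidin-XL665).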

human Lck enzyme = molecular target: T2, human Lck enzyme (Homo sapiens, UniProt P06239); experiment: Lck enzyme inhibitory activity (time-resolved fluorometry, biotinylated peptide phosphorylation); details: read-out: LCK_IC50
T2 construct: purchased Carna Biosciences, Inc. 08-170
Outline: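 Readout pairs a europium cryptate-labelled anti-phosphotyrosine antibody with XL665-streptavidin, measured by time-resolved fluorescence. IC50 derived from percent inhibition against untreated controls.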

human Src enzyme = molecular target: T3, human Src enzyme (Homo sapiens, UniProt P12931); experiment: Src enzyme inhibitory activity (time-resolved fluorometry, biotinylated peptide phosphorylation); details: read-out: SRC_IC50
T3 construct: purchased Carna Biosciences, Inc. 08-173
Outline: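 Compounds were tested for blocking tyrosine phosphorylation of a biotinylated peptide substrate by recombinant human Src. Phosphorylated product was quantified by time-resolved fluorometry using europium cryptate and XL665 conjugates, and IC50 was calculated against the compound-free control.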

T1 sequence (P07947 whole entry): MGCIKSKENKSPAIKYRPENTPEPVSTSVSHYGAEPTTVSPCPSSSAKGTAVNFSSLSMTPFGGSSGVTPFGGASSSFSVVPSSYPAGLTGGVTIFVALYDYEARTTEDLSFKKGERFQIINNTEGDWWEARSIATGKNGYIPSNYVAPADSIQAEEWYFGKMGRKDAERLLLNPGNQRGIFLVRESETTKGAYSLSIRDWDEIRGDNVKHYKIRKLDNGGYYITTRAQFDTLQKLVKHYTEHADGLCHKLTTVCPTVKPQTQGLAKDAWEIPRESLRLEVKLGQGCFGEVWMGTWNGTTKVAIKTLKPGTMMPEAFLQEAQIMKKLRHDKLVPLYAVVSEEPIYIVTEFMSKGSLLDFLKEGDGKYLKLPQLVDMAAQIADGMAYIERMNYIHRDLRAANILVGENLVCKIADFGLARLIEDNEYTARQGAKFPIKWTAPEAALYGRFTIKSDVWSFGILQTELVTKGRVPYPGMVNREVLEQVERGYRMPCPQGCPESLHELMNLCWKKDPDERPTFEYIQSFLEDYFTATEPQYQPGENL
T2 sequence (P06239 whole entry): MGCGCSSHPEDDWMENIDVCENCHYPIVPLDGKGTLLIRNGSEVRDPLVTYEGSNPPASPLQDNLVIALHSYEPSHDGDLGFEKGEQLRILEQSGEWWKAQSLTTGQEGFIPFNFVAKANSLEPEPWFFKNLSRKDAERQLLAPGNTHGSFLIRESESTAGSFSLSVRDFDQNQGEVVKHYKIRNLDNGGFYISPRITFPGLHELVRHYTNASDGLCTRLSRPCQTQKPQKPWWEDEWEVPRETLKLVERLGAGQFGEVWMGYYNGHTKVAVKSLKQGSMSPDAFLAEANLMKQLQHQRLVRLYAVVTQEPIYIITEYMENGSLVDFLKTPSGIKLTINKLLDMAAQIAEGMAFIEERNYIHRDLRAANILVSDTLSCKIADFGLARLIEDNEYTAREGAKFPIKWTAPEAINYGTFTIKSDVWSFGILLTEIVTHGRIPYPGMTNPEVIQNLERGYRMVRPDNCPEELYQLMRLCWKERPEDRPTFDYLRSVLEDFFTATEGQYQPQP
T3 sequence (P12931 whole entry): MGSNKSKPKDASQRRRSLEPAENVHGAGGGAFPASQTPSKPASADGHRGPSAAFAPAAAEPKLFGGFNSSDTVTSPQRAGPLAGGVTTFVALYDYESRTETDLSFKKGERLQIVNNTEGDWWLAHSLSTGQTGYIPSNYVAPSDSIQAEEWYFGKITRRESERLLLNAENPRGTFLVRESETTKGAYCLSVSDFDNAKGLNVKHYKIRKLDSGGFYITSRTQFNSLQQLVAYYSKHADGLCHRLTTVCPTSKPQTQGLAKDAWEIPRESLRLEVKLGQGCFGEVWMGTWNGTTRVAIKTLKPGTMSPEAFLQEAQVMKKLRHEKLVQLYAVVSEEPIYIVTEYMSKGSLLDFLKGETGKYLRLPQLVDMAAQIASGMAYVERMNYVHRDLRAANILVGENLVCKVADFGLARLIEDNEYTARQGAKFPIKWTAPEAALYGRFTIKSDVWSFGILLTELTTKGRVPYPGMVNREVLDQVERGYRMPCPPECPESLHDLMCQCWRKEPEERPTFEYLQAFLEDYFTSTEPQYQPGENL

SMILES	IC50 (human Yes1 enzyme) [nM]	IC50 (human Lck enzyme) [nM]	IC50 (human Src enzyme) [nM]
Cc1cc(-n2ncc(C(=O)c3cc4cc(OC5CCN(C(C)C)CC5)c(NS(C)(=O)=O)cc4[nH]3)c2N)ccc1Oc1ccccc1F [Example 5-1-156, N-(2-(5-amino-1-(4-(2-fluorophenoxy)-3-methylphenyl)-1H-pyrazole-4-carbonyl)-5-((1-isopropylpiperidin-4-yl)oxy)-1H-indol-6-yl)methanesulfonamide]	1.6	64	1100
Cc1cc(-n2ncc(C(=O)c3cc4cc(N5CCOCC5)c(NS(C)(=O)=O)cc4[nH]3)c2N)ccc1Oc1ccccc1F [Example 5-1-157, N-[2-[5-amino-1-[4-(2-fluorophenoxy)-3-methylphenyl]pyrazole-4-carbonyl]-5-morpholin-4-yl-1H-indol-6-yl] methanesulfonamide]	1.9	480	1100
Cc1cc(-n2ncc(C(=O)c3cc4cc(OC(F)F)c(N)cc4[nH]3)c2N)ccc1Oc1ccccc1F [Example 5-1-161, [6-amino-5-(difluoromethoxy)-1H-indol-2-yl]-[5-amino-1-[4-(2-fluorophenoxy)-3-methylphenyl]pyrazol-4-yl]methanone]	2.8	160	600
Cc1cc(-n2ncc(C(=O)c3cc4cc(OCC(F)F)c(N)cc4[nH]3)c2N)ccc1Oc1ccccc1F [Example 5-1-162, [6-amino-5-(2,2-difluoroethoxy)-1H-indol-2-yl]-[5-amino-1-[4-(2-fluorophenoxy)-3-methylphenyl]pyrazol-4-yl]methanone]	2.1	120	480
Cc1cc(-n2ncc(C(=O)c3cc4cc(N5CCOCC5)c(N5C(=O)NC(C)(C)C5=O)cc4[nH]3)c2N)ccc1Oc1ccccc1F [Example 5-1-164, 3-[2-[5-amino-1-[4-(2-fluorophenoxy)-3-methylphenyl]pyrazole-4-carbonyl]-5-morpholin-4-yl-1H-indol-6-yl]-5,5-dimethylimidazolidine-2,4-dione]	1.8	69	700
Cc1cc(-n2ncc(C(=O)c3cc4cc(N5CCOCC5)c(N5CCC(N6CCOCC6)CC5)cc4[nH]3)c2N)ccc1Oc1ccccc1F [Example 5-1-165, [5-amino-1-[4-(2-fluorophenoxy)-3-methylphenyl]pyrazol-4-yl]-[5-morpholin-4-yl-6-(4-morpholin-4-ylpiperidin-1-yl)-1H-indol-2-yl] methanone]	1.8	37	340
Cc1cc(-n2ncc(C(=O)c3cc4cc(OCC(F)F)c(NS(C)(=O)=O)cc4[nH]3)c2N)ccc1Oc1ccccc1F [Example 5-1-166, N-[2-[5-amino-1-[4-(2-fluorophenoxy)-3-methylphenyl]pyrazole-4-carbonyl]-5-(2,2-difluoroethoxy)-1H-indol-6-yl] methanesulfonamide]	2	250	820
Cc1cc(-n2ncc(C(=O)c3cc4cc(OC(F)F)c(NS(C)(=O)=O)cc4[nH]3)c2N)ccc1Oc1ccccc1F [Example 5-1-167, N-[2-[5-amino-1-[4-(2-fluorophenoxy)-3-methylphenyl]pyrazole-4-carbonyl]-5-(difluoromethoxy)-1H-indol-6-yl] methanesulfonamide]	3.6	370	2000
Cc1cc(-n2ncc(C(=O)c3cc4cc(OC(F)F)c(N5CCOCC5)cc4[nH]3)c2N)ccc1Oc1ccccc1F [Example 5-1-173, [5-amino-1-[4-(2-fluorophenoxy)-3-methylphenyl]pyrazol-4-yl]-[5-(difluoromethoxy)-6-morpholin-4-yl-1H-indol-2-yl]methanone]	2.6	100	340
Cc1cc(-n2ncc(C(=O)c3cc4cc(OC(F)F)c(N5CCN(S(C)(=O)=O)CC5)cc4[nH]3)c2N)ccc1Oc1ccccc1F [Example 5-1-175, [5-amino-1-[4-(2-fluorophenoxy)-3-methylphenyl]pyrazol-4-yl]-[5-(difluoromethoxy)-6-(4-methylsulfoNylpiperazin-1-yl)-1H-indol-2-yl]methanone]	2.4	74	350
Cc1cc(-n2ncc(C(=O)c3cc4cc(OC(F)F)c(N5CCOC5=O)cc4[nH]3)c2N)ccc1Oc1ccccc1F [Example 5-1-177, 3-[2-[5-amino-1-[4-(2-fluorophenoxy)-3-methylphenyl]pyrazole-4-carbonyl]-5-(difluoromethoxy)-1H-indol-6-yl]-1,3-oxazolidin-2-one]	2.4	82	340

The next compounds have a lower IC50 (human Yes1 enzyme) than those just listed; values first:

IC50 (human Yes1 enzyme) [nM]	IC50 (human Lck enzyme) [nM]	IC50 (human Src enzyme) [nM]	SMILES
1.4	39	96	Cc1cc(-n2ncc(C(=O)c3cc4cc(N5CCOCC5)c(N5CCOCC5)cc4[nH]3)c2N)ccc1Oc1ccccc1F [Example 5-1-159, [5-amino-1-[4-(2-fluorophenoxy)-3-methylphenyl]pyrazol-4-yl]-(5,6-dimorpholin-4-yl-1H-indol-2-yl)methanone]
1.3	89	490	Cc1cc(-n2ncc(C(=O)c3cc4cc(OCC(F)F)c(N5C(=O)NC(C)(C)C5=O)cc4[nH]3)c2N)ccc1Oc1ccccc1F [Example 5-1-170, 3-[2-[5-amino-1-[4-(2-fluorophenoxy)-3-methylphenyl]pyrazole-4-carbonyl]-5-(2,2-difluoroethoxy)-1H-indol-6-yl]-5,5-dimethylimidazolidine-2,4-dione]
1.1	45	210	Cc1cc(-n2ncc(C(=O)c3cc4cc(OCC(F)F)c(N5CCOC5=O)cc4[nH]3)c2N)ccc1Oc1ccccc1F [Example 5-1-168, 3-[2-[5-amino-1-[4-(2-fluorophenoxy)-3-methylphenyl]pyrazole-4-carbonyl]-5-(2,2-difluoroethoxy)-1H-indol-6-yl]-1,3-oxazolidin-2-one]
1.1	49	79	Cc1cc(-n2ncc(C(=O)c3cc4cc(OCC(F)F)c(N5CCN(S(C)(=O)=O)CC5)cc4[nH]3)c2N)ccc1Oc1ccccc1F [Example 5-1-171, [5-amino-1-[4-(2-fluorophenoxy)-3-methylphenyl]pyrazol-4-yl]-[5-(2,2-difluoroethoxy)-6-(4-methylsulfonylpiperazin-1-yl)-1H-indol-2-yl]methanone]
1	11	79	Cc1cc(-n2ncc(C(=O)c3cc4cc(OC5CCN(C(C)C)CC5)c(N5CCN(S(C)(=O)=O)CC5)cc4[nH]3)c2N)ccc1Oc1ccccc1F [Example 5-1-176, [5-amino-1-[4-(2-fluorophenoxy)-3-methylphenyl]pyrazol-4-yl]-[6-(4-methylsulfonylpiperazin-1-yl)-5-(1-propan-2-ylpiperidin-4-yl)oxy-1H-indol-2-yl]methanone]
0.9	42	76	Cc1cc(-n2ncc(C(=O)c3cc4cc(N5CCOCC5)c(N5CCN(S(C)(=O)=O)CC5)cc4[nH]3)c2N)ccc1Oc1ccccc1F [Example 5-1-158, [5-amino-1-[4-(2-fluorophenoxy)-3-methylphenyl]pyrazol-4-yl]-[6-(4-methylsulfonylpiperazin-1-yl)-5-morpholin-4-yl-1H-indol-2-yl]methanone]
0.9	18	170	Cc1cc(-n2ncc(C(=O)c3cc4cc(OCC(F)F)c(N5CCC(N6CCOCC6)CC5)cc4[nH]3)c2N)ccc1Oc1ccccc1F [Example 5-1-172, [5-amino-1-[4-(2-fluorophenoxy)-3-methylphenyl]pyrazol-4-yl]-[5-(2,2-difluoroethoxy)-6-(4-morpholin-4-ylpiperidin-1-yl)-1H-indol-2-yl]methanone]
0.88	46	100	Cc1cc(-n2ncc(C(=O)c3cc4cc(OCC(F)F)c(N5CCOCC5)cc4[nH]3)c2N)ccc1Oc1ccccc1F [Example 5-1-169, [5-amino-1-[4-(2-fluorophenoxy)-3-methylphenyl]pyrazol-4-yl]-[5-(2,2-difluoroethoxy)-6-morpholin-4-yl-1H-indol-2-yl] methanone]
0.71	33	230	Cc1cc(-n2ncc(C(=O)c3cc4cc(N5CCOCC5)c(N5CCOC5=O)cc4[nH]3)c2N)ccc1Oc1ccccc1F [Example 5-1-160, 3-[2-[5-amino-1-[4-(2-fluorophenoxy)-3-methylphenyl]pyrazole-4-carbonyl]-5-morpholin-4-yl-1H-indol-6-yl]-1,3-oxazolidin-2-one]
0.64	7	59	Cc1cc(-n2ncc(C(=O)c3cc4cc(OC5CCN(C(C)C)CC5)c(N)cc4[nH]3)c2N)ccc1Oc1ccccc1F [Example 5-1-163, (5-amino-1-(4-(2-fluorophenoxy)-3-methylphenyl)-1H-pyrazol-4-yl)(6-amino-5-((1-isopropylpiperidin-4-yl)oxy)-1H-indol-2-yl)methanone]
0.56	4.5	46	Cc1cc(-n2ncc(C(=O)c3cc4cc(OC5CCN(C(C)C)CC5)c(N5CCOCC5)cc4[nH]3)c2N)ccc1Oc1ccccc1F [Example 5-1-174, (5-amino-1-(4-(2-fluorophenoxy)-3-methylphenyl)-1H-pyrazol-4-yl)(5-((1-isopropylpiperidin-4-yl)oxy)-6-morpholino-1H-indol-2-yl)methanone]
0.37	3.4	48	Cc1cc(-n2ncc(C(=O)c3cc4cc(OC5CCN(C(C)C)CC5)c(N5CCOC5=O)cc4[nH]3)c2N)ccc1Oc1ccccc1F [Example 5-1-178, 3-(2-(5-amino-1-(4-(2-fluorophenoxy)-3-methylphenyl)-1H-pyrazole-4-carbonyl)-5-((1-isopropylpiperidin-4-yl)oxy)-1H-indol-6-yl)oxazolidin-2-one]
